Measurements published in publication PMC8403366, “Functional significance of gain-of-function H19 lncRNA in skeletal muscle differentiation and anti-obesity effects” (Genome Medicine, 2021).

Assays:
Assay type in all cases: in vivo, mouse
WT C57BL/6 J mice = test: Muscle and fat weights and body composition of treated WT mice; conditions: 1 mg/kg i.p. every 3 days, 12 weeks
Method: To determine the effects of H19-Rgof with a skeletal muscle enrichment peptide agrin (AGR-H19-Rgof) on WT C57BL/6 J or Lep^Ob/Ob mice, AGR-tagged oligonucleotides were used. The synthesis and sequence information of AGR-tagged RNA oligonucleotides are described in “Synthesis of H19-Rgof mimics, AGR-H19-Rgof mimics, and Pharmacokinetics (PK) studies.” AGR-Scr (conjugated to scramble oligonucleotides), H19-Rgof, or AGR-H19-Rgof mimics were injected at a dose of 1 mg/kg intraperitoneally into 3-week-old male and female mice. For AGR-H19-Rgof treatment in HFD (Cat # D12492, Research Diets, Inc.)-fed mice, male C57BL/6 J mice were fed with a HFD starting at 6 weeks of age. The AGR-H19-Rgof and AGR-Scr mimics were injected at a dose of 0.5 or 1 mg/kg intraperitoneally every other day starting 2 weeks after the initiation of HFD feeding. Body weight was measured weekly. The general health condition, grooming, and behavior of all animals were monitored daily, and injection sites were checked for signs of redness or edema.
Unless otherwise indicated, mice were fasted for 4–6 h, anesthetized with isoflurane, and sacrificed by heart puncture. Tissues were dissected, weighed, and either dipped in liquid nitrogen or fixed for immunohistochemistry analysis. Individual muscle was dissected on one side of the body and weighed. Adipose tissues including white adipose tissue (WAT), visceral adipose tissue (VAT), and brown adipose tissue (BAT) were collected and weighed.
Whole-body composition parameters were measured in male and female mice fed with either chow or HFD by Faxitron Specimen Radiography System (Faxitron X-Ray Corp.) to precisely measure total body fat and lean mass. Mice were housed in the Oxymax/CLAMS metabolic cage system (Columbus Instruments) for 4 days with ad libitum access to food and water. Volume of oxygen uptake (VO2) and exhaled carbon dioxide (VCO2), respiratory exchange ratio (RER), and activity were measured using the Oxymax system. RER is determined by dividing VCO2 produced by VO2 consumed.

C57BL/6 J mice [1] = test: Forelimb grip strength test; conditions: vs AGR-Scr
Method: A grip strength meter (Columbus Instruments) was used to measure the forelimb grip strength as previously reported. The grid was attached to a force transducer to measure the maximum force applied by the mouse on the grid during the pull. The body weight of the mice was recorded prior to the test and the units of force were calculated in grams-of-force.

C57BL/6 J mice [2] = test: Run-to-exhaustion and sprint treadmill tests
Method: Exhaustion treadmill running and sprint running were used to evaluate the physiological activity of the mice. The mice were repeatedly exercised twice weekly for 2 weeks using a treadmill (Ugo Basile, 57631, Stoelting). For the animal exercise, mice were placed on the horizontal treadmill starting at 5 m/min and kept on for about 10 min. The speed was then increased to 10 m/min for the remaining 30 min. Treadmill training was […] and followed a standardized protocol. When performing the speed test, the mice were placed on a treadmill with a 15° incline. We increased the speed from 6 m/min to 26 m/min at increments of 2 m/min, which each increment lasting 2 min. Mice were considered to have reached the point of exhaustion when they made contact with the grid for a period of time greater than 5 s. The running speed of the mice was recorded and the animals were returned to their cages once exhausted. For the sprint test: the sprint regimen consisted of mice warming up for 3 min at 6 m/min on a 0° incline, followed by a 2 min run at the same speed with a 15° incline. Subsequent runs were performed at a 15° incline. Speed was first increased to 14 m/min for 30 s, followed by 1.5 min of low speed running at 6 m/min. The speed was then increased to 18 m/min for 30 s. Afterwards, we increased the speed from 18 m/min to 24 m/min at 2 m/min increments, with each increment lasting 15 s […]. After that, the mice continued interval running at 6 m/min for 3 min, followed by an increase in the speed from 20 m/min to 32 m/min at 4 m/min increments, with each increment lasting 15 s. This pattern of exercise continued with subsequent intervals running at 6 m/min for 3 min, followed by a sharp increase in speed from 22 m/min to 34 m/min at 4 […], with each increment lasting 15 s. This pattern was repeated with increasing speed until the mice could no longer keep up and gave up on the grid.

C57BL/6 J mice [3] = test: Glucose and insulin tolerance tests; conditions: n = 5
Method: Insulin (ITT) and glucose (GTT) tolerance tests were performed on 6-h fasted male and female mice fed with chow or HFD. Glucose values were measured using AimStrip® Plus Blood Glucose Meter (VWR) by tail snip. Glucose (1 g per kg body weight) or human insulin (0.75 U per kg body weight) was injected intraperitoneally (i.p.) after baseline glucose levels were measured in each mouse, and blood glucose levels were measured 15, 30, 45, 60, and 90 min after injection.

[4] = HFD-fed mice, vs AGR-Scr, n = 5

Substance: N-terminal-ELTNEIPAELTNEIPA-Linker-5'-[2’-F-C][2’-F-U][2’-F-C][2’-F-U][2’-F-U][2’-F-U][2’-F-A][2’-F-U][2’-F-U][2’-F-U][2’-F-C][2’-F-U][2’-F-G][2’-F-A][2’-F-G][2’-F-C][2’-F-U][2’-F-U][2’-F-U][2’-F-C][2’-F-C][2’-F-U][2’-F-A][2’-F-U][2’-F-C][2’-F-U][2’-F-U][2’-F-U][2’-F-C][2’-F-C]-3' [AGR-H19-Rgof]
- body weight (body composition analysis) (WT C57BL/6 J mice; vs AGR-Scr): increased body weight
- fat percentage (body composition analysis) (WT C57BL/6 J mice; vs AGR-Scr): reduced
- fat weight (body composition analysis) (WT C57BL/6 J mice; vs AGR-Scr): reduced
- lean weight (body composition analysis) (WT C57BL/6 J mice; vs AGR-Scr): increased
- fat weight (BAT, WAT, VAT) (WT C57BL/6 J mice; vs AGR-Scr or H19-Rgof): reduced fat weight
- muscle weight (WT C57BL/6 J mice; vs AGR-Scr or H19-Rgof): increased muscle weight
- force output, forelimb grip strength test (C57BL/6 J mice [1]; HFD-fed mice, n = 5): increased force output
- forelimb grip strength, average force (C57BL/6 J mice [1]; WT male and female mice, n = 8): increased average force
- running speed (C57BL/6 J mice [2]; [4]): elevated
- total running time (C57BL/6 J mice [2]; [4]): elevated
- running speed, treadmill exhaustion test (C57BL/6 J mice [2]; WT male and female mice, vs Scr-treated controls, n = 15): increased speed
- maximum running speed, sprint interval treadmill (C57BL/6 J mice [2]; WT male and female mice, vs control, n = 10): elevated
- glucose metabolism (GTT) (C57BL/6 J mice [3]; HFD-fed male mice): improved
- insulin resistance (ITT, serum insulin, HOMA-IR) (C57BL/6 J mice [3]; HFD-fed male mice): alleviated
- blood glucose levels in response to a glucose challenge (GTT) (C57BL/6 J mice [3]; WT male mice on chow, glucose 1 g per kg i.p.): reduced
- blood glucose levels in response to an insulin challenge (ITT) (C57BL/6 J mice [3]; WT male mice on chow, insulin 0.75 U per kg i.p.): reduced
